Earlier results, collected in PMC10818380, “Triphenylphosphonium Analogs of Short Peptide Related to Bactenecin 7 and Oncocin 112 as Antimicrobial Agents” (Pharmaceutics, 2024).
Values after ≈ are worked out from the molar mass of the structure shown.

What was measured:
B. subtilis 168 = tested on: B. subtilis 168; design: method as in PMID 33922611; conditions: cited from earlier work
B. subtilis CFR = conditions: cited from earlier work

**Q.** For `O=C(N[C@H](CO)[C@H](O)c1ccc([N+](=O)[O-])cc1)C(Cl)Cl` [Chloramphenicol], which MIC (B. subtilis 168) is on record?
**A.** Its MIC is 12 µM (≈ 3.88 µg/mL).

**Q.** What about the MIC (B. subtilis CFR) of the same compound?
**A.** The MIC was 90 µM (≈ 29.1 µg/mL).
